This passage reports carcinogen call and TD50 results from PubChem BioAssay AID1745844 (Carcinogenic Potency Database (CPDB), 2022).

This data set relates to rodent lifetime carcinogenesis bioassay, tumor incidence TD50. The data set can be described thus: chronic cancer bioassays in animals – CPDB, compiled studies (AID 1745844). The conditions noted are these: in feed.

Calls of active or inactive are those of the source. The rule behind the calls is not given here.

In the case of `Clc1ccc2c(c1)Oc1ccc(Cl)cc1O2`, the carcinogen call was “negative (inactive)” (mouse, strain B6C3F1, females, site: any site (literature study), lesion: several types, types named in the paper, dosed 90 weeks, study length 91 weeks); “negative (inactive)” (rat, strain Osborne-Mendel, females, site: any site (literature study), lesion: several types, types named in the paper, dosed 110 weeks, study length 110 weeks); “negative (inactive)” (rat, strain Osborne-Mendel, males, site: any site (literature study), lesion: several types, types named in the paper, dosed 110 weeks, study length 110 weeks). Besides, the TD50 (in general, the 50% point of the dose-response relation for the toxic effect studied) is, setting by setting: (mouse, strain B6C3F1, males, site: all sites, lesion: hemangioma + hemangiosarcoma, dosed 90 weeks, study length 92 weeks) 2750 mg/kg/day; (mouse, strain B6C3F1, males, site: all sites, lesion: leukemia + lymphoma, dosed 90 weeks, study length 92 weeks) 1920 mg/kg/day; (mouse, strain B6C3F1, males, site: any site (literature study), lesion: several types, types named in the paper, dosed 90 weeks, study length 92 weeks) 2910 mg/kg/day; (mouse, strain B6C3F1, males, site: liver, lesion: hepatocellular adenoma + hepatocellular carcinoma + neoplastic nodule, dosed 90 weeks, study length 92 weeks) 2120 mg/kg/day; (mouse, strain B6C3F1, males, site: liver, lesion: hepatocellular adenoma + hepatocellular carcinoma, dosed 90 weeks, study length 92 weeks) 2120 mg/kg/day; (rat, strain Osborne-Mendel, males, site: liver, lesion: hepatocellular adenoma + hepatocellular carcinoma + neoplastic nodule, dosed 110 weeks, study length 110 weeks) 12900 mg/kg/day.

`Cc1cc(C)nc(NS(=O)(=O)c2ccc(N)cc2)n1`: the TD50 (mouse, strain B6C3F1, females, site: liver, lesion: hepatocellular adenoma, dosed 78 weeks, study length 78 weeks) was 2820 mg/kg/day; the TD50 (mouse, strain B6C3F1, females, site: liver, lesion: hepatocellular adenoma, dosed 104 weeks, study length 104 weeks) stood at 12300 mg/kg/day; the TD50 (mouse, strain B6C3F1, females, site: liver, lesion: hepatocellular carcinoma, dosed 104 weeks, study length 104 weeks) was 16500 mg/kg/day; the TD50 (mouse, strain B6C3F1, females, site: liver, lesion: several types, types named in the paper, dosed 104 weeks, study length 104 weeks) turned out to be 8740 mg/kg/day; the TD50 (mouse, strain B6C3F1, females, site: lung, lesion: alveolar/bronchiolar carcinoma, dosed 52 weeks, study length 52 weeks) was found to be 3100 mg/kg/day; the TD50 (mouse, strain B6C3F1, females, site: lung, lesion: alveolar/bronchiolar carcinoma, dosed 104 weeks, study length 104 weeks) worked out at 12700 mg/kg/day. For the same compound, the TD50 by setting is: (mouse, strain B6C3F1, females, site: thyroid gland, lesion: follicular-cell adenoma, dosed 78 weeks, study length 78 weeks) 618 mg/kg/day; (mouse, strain B6C3F1, females, site: thyroid gland, lesion: follicular-cell adenoma, dosed 104 weeks, study length 104 weeks) 2160 mg/kg/day; (mouse, strain B6C3F1, females, site: thyroid gland, lesion: follicular-cell carcinoma, dosed 104 weeks, study length 104 weeks) 54800 mg/kg/day; (mouse, strain B6C3F1, females, site: thyroid gland, lesion: several types, types named in the paper, dosed 104 weeks, study length 104 weeks) 2060 mg/kg/day; (mouse, strain B6C3F1, males, site: liver, lesion: hepatocellular adenoma, dosed 104 weeks, study length 104 weeks) 14900 mg/kg/day; (mouse, strain B6C3F1, males, site: liver, lesion: several types, types named in the paper, dosed 104 weeks, study length 104 weeks) 11700 mg/kg/day. The TD50 (mouse, strain B6C3F1, males, site: thyroid gland, lesion: follicular-cell adenoma, dosed 78 weeks, study length 78 weeks) turned out to be 3370 mg/kg/day; the TD50 (mouse, strain B6C3F1, males, site: thyroid gland, lesion: follicular-cell adenoma, dosed 104 weeks, study length 104 weeks) is 1220 mg/kg/day; the TD50 (mouse, strain B6C3F1, males, site: thyroid gland, lesion: follicular-cell carcinoma, dosed 104 weeks, study length 104 weeks) is 72100 mg/kg/day; the TD50 (mouse, strain B6C3F1, males, site: thyroid gland, lesion: several types, types named in the paper, dosed 104 weeks, study length 104 weeks) was 1190 mg/kg/day.

Consider `CN(C)c1ccc(N=NS(=O)(=O)O)cc1`, for which the TD50 is 259 mg/kg/day (mouse, strain B6C3F1, females, site: any site (literature study), lesion: several types, types named in the paper, dosed 78 weeks, study length 95 weeks); 152 mg/kg/day (mouse, strain B6C3F1, females, site: liver, lesion: hepatocellular adenoma + hepatocellular carcinoma + neoplastic nodule, dosed 78 weeks, study length 95 weeks); 152 mg/kg/day (inactive) (mouse, strain B6C3F1, females, site: liver, lesion: hepatocellular adenoma + hepatocellular carcinoma, dosed 78 weeks, study length 95 weeks); 1750 mg/kg/day (mouse, strain B6C3F1, females, site: lung, lesion: alveolar/bronchiolar adenoma + alveolar/bronchiolar carcinoma, dosed 78 weeks, study length 95 weeks). Moreover, the carcinogen call was “negative (inactive)” (mouse, strain B6C3F1, males, site: any site (literature study), lesion: several types, types named in the paper, dosed 78 weeks, study length 94 weeks); “negative (inactive)” (rat, strain Fischer 344, females, site: any site (literature study), lesion: several types, types named in the paper, dosed 78 weeks, study length 105 weeks); “negative (inactive)” (rat, strain Fischer 344, males, site: any site (literature study), lesion: several types, types named in the paper, dosed 78 weeks, study length 105 weeks).

Turning to `c1ccc2[nH]ccc2c1`, where the note is “mouse, strain Swiss albino, females, site: urinary bladder, lesion: carcinoma, dosed 70 weeks, study length 70 weeks”, the carcinogen call is “negative (inactive)”.
